Common to all, as to assay: Antibacterial activity against clinically isolated β-lactamase producing strains
What all share (type): cell-based

The test system of assay [1] is Pseudomonas aeruginosa GN 918. Particulars: Pseudomonas aeruginosa, GN918; cephalosporinase producing strain, 18 to 20 hours; read-out: MIC. Put shortly:
(§1)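 Cephalosporinase-producing strains were grown 18 hours in sensitivity test broth, diluted in fresh broth to […], and spot-inoculated onto sensitivity disk agar-N containing test compound.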

For the next assay, the system named is Proteus vulgaris GN 76. To be noted: Proteus vulgaris, GN76. In a few lines:
as §1

Assay [2] has as its system Enterobacter cloacae GN 7471. To be noted: Enterobacter cloacae, GN7471; cephalosporinase producing strain, 18 to 20 hours; read-out: MIC. Put shortly: as §1
Assay [3] relates to Enterobacter cloacae GN 7467. To be noted: Enterobacter cloacae, GN7467; cephalosporinase producing strain, 18 to 20 hours; read-out: MIC. In a few lines:
as §1

Each structure is given as a SMILES string. ≈ marks a conversion by molar mass, not a printed value.

As usually defined, the MIC is the smallest concentration in the dilution series that meets the test's criterion for growth inhibition. As for `C[C@@H](O)[C@H]1C(=O)N2C(C(=O)O)=C(SCCN=CN)C[C@H]12` [Imipenem], the MIC in assay [1] stood at 0.78 µg/mL (≈ 2.61 µM); with Proteus vulgaris GN 76, 3.13 µg/mL (≈ 10.5 µM); in assay [2], 0.2 µg/mL (≈ 0.668 µM); in assay [3], 0.78 µg/mL (≈ 2.61 µM).

Values taken from patent publication US4990613A, “(1R,5S,6S)-2-[(6,7-dih ydro-5H-pyrazolo[1,2-a][1,2,4]triazolium-6-yl)]thio-6-[R-1-hydroxyethyl]- 1-methyl-carbapenem-3-carboxylate and intermediate therefor” (Lederle (Japan), Ltd., priority 1987, dated 1991).
